The source of these data is patent publication US9486461B2, “Methods and compositions for inducing apoptosis by stimulating ER stress” (UNIVERSITY OF SOUTHERN CALIFORNIA, priority 2007, dated 2016).

The subject of one series is human glioblastoma cells. Briefly: Induction of apoptosis in human glioblastoma cells (FIG. 19). Type of series: cell-based. An excerpt: In the figure, DMC stands for 4-[5-(2,5-dimethylphenyl)-3-(trifluoromethyl)-1H-pyrazol-1-yl]benzenesulfonamide; DBrC stands for 4-[5-(2,5-dibromophenyl)-3-(trifluoromethyl)-1H-pyrazol-1-yl]benzenesulfonamide; and DTF3C stands for 4-[5-(2,5-ditrifluoromethylphenyl)-3-(trifluoromethyl)-1H-pyrazol-1-yl]benzenesulfonamide.

Series [1] concerns cytoplasmic calcium levels in U251 cells. Briefly: Cytoplasmic calcium imaging (Fura-2/AM). In kind it is cell-based, human. Conditions: 100 μmol/L of each drug, Fura-2/AM loaded cells. The protocol:
(A) U251 cells were treated with DMC or various coxibs and NSAIDs, and changes in intracellular calcium levels were recorded as described in Materials & Methods. […] Arrows indicate timepoint of drug addition. […] Essentially similar results were also obtained with the LN229 cell line.
The cells were loaded by incubating them with […] Fura-2/AM (Invitrogen) for 30 min at room temperature in external solution containing 138 mmol/L NaCl, 5.6 mmol/L KCl, 1.2 mmol/L MgCl2, 2.6 mmol/L CaCl2, 10 mmol/L HEPES, and 4 mmol/L glucose (pH 7.4). After loading, the cells were rinsed and transferred to the imaging setup. The cells were treated with individual drugs for 10 s, whereas fluorescence was elicited with the excitation wavelength alternating between 350 and 380 nm, using a Polychromator V (TILL Photonics GmbH, Grafelfing, Germany) to provide illumination via a Zeiss Axiovert 100 microscope with a Zeiss Fluar 40 oil objective (Carl Zeiss, Jena, Germany). Images were captured using a Cascade 512B CCD camera (Photometrics, Tucson, Ariz.) controlled with MetaFluor software (Molecular Devices, Sunnyvale, Calif.) at 0.5 Hz acquisition frequency. Ratios of the images obtained at 350 and 380 nm excitation were used to show changes in the cytoplasmic calcium concentration, according to the principles developed by Grynkiewicz et al. (31).

Series [2] deals with U251 glioblastoma cells. Briefly: MTT assay, U251. The conditions noted are these: U251, 48 hours, concentrations of up to 100 μmol/L. In kind it is cell-based, human. As for the experimental part: U251 glioblastoma cells were treated with different drugs, and various parameters of cell growth and cell death were comparatively analyzed. As controls, cells remained either non-treated (Co) or were treated with the solvent DMSO alone. (FIG. 8A) Cells were treated with 30 or 50 μM DMC for 48 hours and the effects on cell growth/survival and on cell death were determined by various assays. […] Below the three panels, the expression levels of the ER stress indicators CHOP, GRP78, and caspase 4 at the end of the 48 hour drug treatment is shown, as determined by Western blot analysis with specific antibodies (actin served as a loading control. (FIG. 8B) Cells were treated with various concentrations of different drugs for 48 hours, as indicated, and cell death was measured with the cell death ELISA kit. (FIG. 8C) Cells were treated with DMC or various coxibs and traditional NSAIDs for 48 hours, as indicated, and cell growth and survival was determined with the conventional MTT assay (control, non-treated cells were set at 100%). MTT assays were performed in 96-well plates with the use of 3.0-8.0×10^3 cells per well as described in detail elsewhere (34). In parallel, the expression levels of CHOP and GRP78 protein were determined by Western blot analysis. […]
3-(4,5-Dimethylthiazol-2-yl)-2,5-diphenyltetrazolium bromide (MTT) assays were performed in 96-well plates with the use of 3.0×10^3 to 8.0×10^3 cells per well as described in detail elsewhere (19).
A general note: Tetrazolium assays rely on reduction of a dye to a coloured formazan, in cell work by metabolically active cells.

The subject of series [3] is U251 glioblastoma cells. Briefly: Cell death ELISA, U251. In kind it is cell-based, human. Conditions: U251, 48 hours, concentrations of up to 100 μmol/L. The protocol: U251 glioblastoma cells were treated with different drugs, and various parameters of cell growth and cell death were comparatively analyzed. As controls, cells remained either non-treated (Co) or were treated with the solvent DMSO alone. (FIG. 8A) Cells were treated with 30 or 50 μM DMC for 48 hours and the effects on cell growth/survival and on cell death were determined by various assays. […] Below the three panels, the expression levels of the ER stress indicators CHOP, GRP78, and caspase 4 at the end of the 48 hour drug treatment is shown, as determined by Western blot analysis with specific antibodies (actin served as a loading control. (FIG. 8B) Cells were treated with various concentrations of different drugs for 48 hours, as indicated, and cell death was measured with the cell death ELISA kit. (FIG. 8C) Cells were treated with DMC or various coxibs and traditional NSAIDs for 48 hours, as indicated, and cell growth and survival was determined with the conventional MTT assay (control, non-treated cells were set at 100%). MTT assays were performed in 96-well plates with the use of 3.0-8.0×10^3 cells per well as described in detail elsewhere (34). In parallel, the expression levels of CHOP and GRP78 protein were determined by Western blot analysis.
Apoptosis in cell cultures in vitro was determined by using the Cell Death Detection ELISA kit (Roche Diagnostics, Indianapolis, Ind.) according to the manufacturer's instructions. This immunoassay specifically detects the histone region (H1, H2A, H2B, H3, and H4) of mononucleosomes and oligonucleosomes that are released during apoptosis. Ninety-six-well plates were seeded with 1,000 cells per well and read at 405 nm in a Microplate Autoreader (Model EL 311 SX; Bio-Tek Instruments, Inc., Winooski, Vt.).
In general terms: ELISA stands for enzyme-linked immunosorbent assay.

In series [4] the test system is CHOP, GRP78, caspase 4 in U251 glioblastoma cells. Briefly: Western blot of ER stress indicators in U251 cells. Type of series: cell-based, human. Conditions: for CHOP expression, time kinetics: U251, 50 μmol/L, 4 h up to 24 h; for increase in CHOP or GRP78 protein, concentration dependence: U251, 15 hours, concentrations up to 75 or 100 μmol/L. As for the experimental part: U251 glioblastoma cells were cultured in the presence of 1 μM thapsigargin (Tg) or 60 μM DMC for various times, as indicated. Total cell lysates were prepared and analyzed by Western blot with specific antibodies to the ER stress proteins GRP78, CHOP, and caspase 4 (Casp 4). Actin was used as a loading control.
Shown are (A) time kinetics at 50 μM of each drug, and (B) concentration dependence after 15 hours of incubation.
Shown are (FIG. 7A) time kinetics at 50 μM of each drug, and (FIG. 7B), concentration dependence after 15 hours of incubation.
U251 glioblastoma cells were cultured for 24 hours in the presence of increasing concentrations of (A) bortezomib (BZM) or (B) DMC. Total cell lysates were analyzed by Western blot with specific antibodies to ubiquitin, GRP78, CHOP, and caspase 4. Actin was used as a loading control.
Total cell lysates were prepared by lysis of cells with radioimmunoprecipitation assay buffer (28), and protein concentrations were determined using the bicinchoninic acid protein assay reagent (Pierce, Rockford, Ill.). For Western blot analysis, 50 Ag of each sample were processed as described (29). The primary antibodies were purchased from Cell Signaling Technologies (Beverly, Mass.), Cayman Chemical (Ann Arbor, Mich.), or Santa Cruz Biotechnology, Inc. (Santa Cruz, Calif.) and used according to the manufacturer's recommendations. The secondary antibodies were coupled to horseradish peroxidase and detected by chemiluminescence using the SuperSignal West substrate from Pierce. All immunoblots were repeated at least once to confirm the results.
Total cell lysates were prepared and analyzed by Western blot analysis as described earlier (19). Immunohistochemical analysis of protein expression in tumor tissues was performed with the use of the Vectastain avidin-biotin complex method kit (Vector Laboratories) as described previously (32). The primary antibodies were purchased from Cell Signaling Technology or Santa Cruz Biotechnology, Inc. and used according to the manufacturers' recommendations. All immunoblots and stainings were repeated at least once to confirm the results.

In series [5] the test system is Tumor-associated Brain Endothelial Cells (TuBEC). Briefly: Trypan blue exclusion, tumor-associated brain endothelial cells. Type of series: cell-based. As for the experimental part: After drug treatment the cells were incubated for another 12 days in the absence of drug, in order to determine their long-term survival; at that time cytotoxicity was evaluated using the trypan blue exclusion technique. Results are presented as number of viable cells per group.
Tumor-associated Brain Endothelial Cells (TuBEC) were treated with TMZ (300 uM) and 20 uM DMC for 48 hours. The drugs were removed and cells were incubated for another 12 days; at that time cytotoxicity was evaluated using the trypan blue exclusion technique. Results are presented as number of viable cells per group.

The test system of series [6] is CHOP protein in U87 glioblastoma tumor tissue. Briefly: Immunohistochemical staining for CHOP in xenograft tumor tissue. In kind it is in vivo, nude mice. The conditions noted are these: U87 xenograft. An excerpt:
In all cases, representative sections are shown.
Immunohistochemical analysis of protein expression in tumor tissues was done with the use of the Vectastain avidin-biotin complex method kit (Vector Laboratories, Burlingame, Calif.) according to the manufacturer's instructions. This procedure uses biotinylated secondary antibodies and a preformed avidin: biotinylated enzyme complex that has been termed the avidin-biotin complex method technique. As the primary antibody, we used anti-CHOP antibody (Santa Cruz Biotechnology) diluted 1:100 in 2% normal goat blocking serum.

Series [7] relates to U87 glioblastoma tumors. Briefly: Tumor growth in xenograft nude mouse model. In kind it is in vivo, nude mice. The conditions noted are these: daily chow for DMC, 40 mg/kg for rofecoxib, n=5. The protocol: Once palpable tumors had formed, the animals received daily chow supplemented with DMC, rofecoxib, or no drug. Tumor size was determined every three days. Shown is the average (mean±SD) tumor volume in each group (n=5). Asterisks (**): p<0.01 between control and DMC-treated animals on day 42.

The test system of series [8] is U87 glioblastoma tumors. Briefly: TUNEL assay of xenograft tumor tissue. Conditions: U87 xenograft, short-term drug treatment.

“Also recorded” adds a separate entry of the source.

For `NS(=O)(=O)c1ccc(-n2nc(C(F)(F)F)cc2-c2cc(C(F)(F)F)ccc2C(F)(F)F)cc1` [DTF3C, 4-[5-(2,5-ditrifluoromethylphenyl)-3-(trifluoromethyl)-1H-pyrazol-1-yl]benzenesulfonamide], the “relative ability to induce apoptosis / cell killing effect compared to DMC” value with human glioblastoma cells is given as “surprisingly potent cell killing effect; also recorded: most potent compound”.

Regarding `CC1=C(CC(=O)O)c2cc(F)ccc2/C1=C\c1ccc([S+](C)[O-])cc1` (stereo not shown) [sulindac], the “elevation of cytoplasmic calcium levels” value in [1] was “none”. For the same compound, the “detectable effect on cell growth and survival (MTT)” value (from here on “detectable effect”) with U251 glioblastoma cells [2] is on record as “none”. Besides, the “induction of cell death/apoptosis (cell death ELISA)” value (“induction of cell death/apoptosis” below) in the series with U251 glioblastoma cells [3] was “did not induce apoptosis”.

As for `Cc1onc(-c2ccccc2)c1-c1ccc(S(N)(=O)=O)cc1` [valdecoxib, 4-[5-Methyl-3-phenylisoxazol-4-yl]-benzenesulfonamide], in series [4], the “CHOP expression, time kinetics” value is on record as “neither rofecoxib nor valdecoxib at the same concentration resulted in any detectable CHOP expression” and the “increase in CHOP or GRP78 protein, concentration dependence” value is “neither rofecoxib nor valdecoxib was able to stimulate any detectable increase”. Also, the “elevation of cytoplasmic calcium levels” value in series [1] is “none”. In addition, in the series with U251 glioblastoma cells [2], the “detectable effect” value is reported as “none”. For the same compound, the “induction of cell death/apoptosis” value in the series with U251 glioblastoma cells [3] was “did not induce apoptosis”.

As to `Cn1nnc2c(C(N)=O)ncn2c1=O` [Temozolomide], the “cytotoxicity on tumor-associated brain endothelial cells” value in series [5] was “little cytotoxicity”.

As for `COc1ccc2c(c1)c(CC(=O)O)c(C)n2C(=O)c1ccc(Cl)cc1` [indomethacin], in series [1], the “elevation of cytoplasmic calcium levels” value is on record as “none”. Besides, in the series on U251 glioblastoma cells [2], the “detectable effect” value is recorded as “none”. Moreover, the “induction of cell death/apoptosis” value in the series with U251 glioblastoma cells [3] is reported as “did not induce apoptosis”.

As for `C/C=C(/C)C(=O)O[C@H]1C(C)=C2[C@H]([C@@H]1OC(=O)CCCCCCC)[C@@](C)(OC(C)=O)C[C@H](OC(=O)CCC)[C@@]1(O)[C@H]2OC(=O)[C@@]1(C)O` [thapsigargin], the “time at which activation (cleavage) of caspase-4 was first noted” value in series [4] (U251, 1 μM thapsigargin or 60 μM DMC) is about 24 h. Also, the “CHOP and GRP78 expression levels” value in series [4] (U251, 1 μM thapsigargin or 60 μM DMC, prominent increase at 6 h and thereafter) was “substantially elevated”.

In the case of `CS(=O)(=O)c1ccc(C2=C(c3ccccc3)C(=O)OC2)cc1` [rofecoxib, 4-(4′-methylsulfonylphenyl)-3-phenyl-2-(5H)-furanone], in series [4], the “CHOP expression, time kinetics” value was “neither rofecoxib nor valdecoxib at the same concentration resulted in any detectable CHOP expression” and the “increase in CHOP or GRP78 protein, concentration dependence” value is on record as “neither rofecoxib nor valdecoxib was able to stimulate any detectable increase”. For the same compound, the “elevation of cytoplasmic calcium levels” value in series [1] is reported as “none”. For the same compound, in the series with U251 glioblastoma cells [2], the “detectable effect” value is recorded as “none”. Also, the “induction of cell death/apoptosis” value in the series on U251 glioblastoma cells [3] is listed as “did not induce apoptosis”. Also, in series [6] (30-180 mg/kg per day for 50 h, DMC and celecoxib already at lowest dosages), the “CHOP staining of tumor tissues” value is given as “consistently negative”. Besides, the “CHOP protein expression in tumor tissue” value in [6] (animals fed drug for 50 h) is on record as “no such increase was observed”. For the same compound, the “tumor growth on longer-term therapy” value in the series with U87 glioblastoma tumors [7] is “not”. In the series on U87 glioblastoma tumors [8], the “apoptosis in the tumor tissue” value is on record as “did not display elevated levels of apoptosis”.

Regarding `CC(C(=O)O)c1ccc(-c2ccccc2)c(F)c1` (stereo not shown) [flurbiprofen], the “elevation of cytoplasmic calcium levels” value in series [1] was “none”. Besides, in the series with U251 glioblastoma cells [2], the “detectable effect” value is on record as “none”. The “induction of cell death/apoptosis” value with U251 glioblastoma cells [3] is listed as “did not induce apoptosis”.

On to `NS(=O)(=O)c1ccc(-n2nc(C(F)(F)F)cc2-c2cc(Br)ccc2Br)cc1` [DBrC, 4-[5-(2,5-dibromophenyl)-3-(trifluoromethyl)-1H-pyrazol-1-yl]benzenesulfonamide], for which, in the series with human glioblastoma cells, the “relative ability to induce apoptosis / cell killing effect compared to DMC” value is given as “surprisingly potent cell killing effect”.
